From ChEMBL document CHEMBL5370683, “Peptide-to-Small Molecule: Discovery of Non-Covalent, Active-Site Inhibitors of β-Herpesvirus Proteases” (ACS Med Chem Lett, 2023)
One block for each compound: values may come before it. Peptide text beside a SMILES is read from it.

Key:
[1] = Inhibition of N-terminal 6 His-tagged HHV6 protease (2 to 230 residues) expressed in Escherichia coli BL21 cells using 5FAM-KPSILNASLTPETVKK as peptide substrate incubated for 3 hrs by fluorescence based analysis; design: species or system Human betaherpesvirus 6
[2] = test system: Human betaherpesvirus 6; test: Inhibition of N-terminal 6 His-tagged HHV6 protease (2 to 230 residues) expressed in Escherichia coli BL21 cells using 5FAM-KPSILNASLTPETVKK as peptide substrate at 99 uM incubated for 3 hrs by fluorescence based analysis relative to control
[3] = Inhibition of amino terminal GST tagged HCMV protease (1 to 256 residues) expressed in Escherichia coli BL21 (DE3) cells using 5-carboxyfluorescein [FAM]-RGVVNASSRLAK as peptide substrate incubated for 3 hrs by fluorescence based analysis; design: species or system Human betaherpesvirus 5
[4] = test system: Human betaherpesvirus 5; test: Inhibition of amino terminal GST tagged HCMV protease (1 to 256 residues) expressed in Escherichia coli BL21 (DE3) cells using 5-carboxyfluorescein [FAM]-RGVVNASSRLAK as peptide substrate at 99 uM incubated for 3 hrs by fluorescence based analysis relative to control
[5] = Inhibition of N-terminal 6 His-tagged HHV6 protease F1A mutant (2 to 230 residues) expressed in Escherichia coli BL21 cells using 5FAM-KPSILNASLTPETVKK as peptide substrate incubated for 3 hrs by fluorescence based analysis; design: species or system Human betaherpesvirus 6
[6] = Inhibition of amino terminal GST tagged HCMV protease F1A mutant (1 to 256 residues) expressed in Escherichia coli BL21 (DE3) cells using 5-carboxyfluorescein [FAM]-RGVVNASSRLAK as peptide substrate incubated for 3 hrs by fluorescence based analysis; design: species or system Human betaherpesvirus 5
[7] = Inhibition of N-terminal 6 His-tagged HHV6 protease R9A mutant (2 to 230 residues) expressed in Escherichia coli BL21 cells using 5FAM-KPSILNASLTPETVKK as peptide substrate incubated for 3 hrs by fluorescence based analysis; design: species or system Human betaherpesvirus 6
[8] = Inhibition of amino terminal GST tagged HCMV protease R9A mutant (1 to 256 residues) expressed in Escherichia coli BL21 (DE3) cells using 5-carboxyfluorescein [FAM]-RGVVNASSRLAK as peptide substrate incubated for 3 hrs by fluorescence based analysis; design: species or system Human betaherpesvirus 5
[9] = Cytotoxicity against HFF cells assessed as inhibition in cell viability incubated for 5 days by luminescence based analysis; format: toxicity; settings: human, time 5 day
[10] = test system: Human betaherpesvirus 5; test: Antiviral activity against HCMV infected in HFF cells assessed as reduction in viral replication; format: functional, organism-based; settings: Human betaherpesvirus 5, HFF
[11] = Inhibition of amino terminal GST tagged HCMV protease H5A mutant (1 to 256 residues) expressed in Escherichia coli BL21 (DE3) cells using 5-carboxyfluorescein [FAM]-RGVVNASSRLAK as peptide substrate incubated for 3 hrs by fluorescence based analysis; design: species or system Human betaherpesvirus 5
[12] = Inhibition of N-terminal 6 His-tagged HHV6 protease H5A mutant (2 to 230 residues) expressed in Escherichia coli BL21 cells using 5FAM-KPSILNASLTPETVKK as peptide substrate incubated for 3 hrs by fluorescence based analysis; design: species or system Human betaherpesvirus 6
[13] = Inhibition of amino terminal GST tagged HCMV protease I2A mutant (1 to 256 residues) expressed in Escherichia coli BL21 (DE3) cells using 5-carboxyfluorescein [FAM]-RGVVNASSRLAK as peptide substrate incubated for 3 hrs by fluorescence based analysis; design: species or system Human betaherpesvirus 5
[14] = Inhibition of N-terminal 6 His-tagged HHV6 protease […] mutant (2 to 230 residues) expressed in Escherichia coli BL21 cells using 5FAM-KPSILNASLTPETVKK as peptide substrate incubated for 3 hrs by fluorescence based analysis; design: species or system Human betaherpesvirus 6
[15] = Inhibition of N-terminal 6 His-tagged HHV6 protease T3A mutant (2 to 230 residues) expressed in Escherichia coli BL21 cells using 5FAM-KPSILNASLTPETVKK as peptide substrate incubated for 3 hrs by fluorescence based analysis; design: species or system Human betaherpesvirus 6
[16] = Inhibition of amino terminal GST tagged HCMV protease T3A mutant (1 to 256 residues) expressed in Escherichia coli BL21 (DE3) cells using 5-carboxyfluorescein [FAM]-RGVVNASSRLAK as peptide substrate incubated for 3 hrs by fluorescence based analysis; design: species or system Human betaherpesvirus 5
[17] = Inhibition of N-terminal 6 His-tagged HHV6 protease V8A mutant (2 to 230 residues) expressed in Escherichia coli BL21 cells using 5FAM-KPSILNASLTPETVKK as peptide substrate incubated for 3 hrs by fluorescence based analysis; design: species or system Human betaherpesvirus 6
[18] = Inhibition of amino terminal GST tagged HCMV protease V8A mutant (1 to 256 residues) expressed in Escherichia coli BL21 (DE3) cells using 5-carboxyfluorescein [FAM]-RGVVNASSRLAK as peptide substrate incubated for 3 hrs by fluorescence based analysis; design: species or system Human betaherpesvirus 5
[19] = Inhibition of amino terminal GST tagged HCMV protease W7A mutant (1 to 256 residues) expressed in Escherichia coli BL21 (DE3) cells using 5-carboxyfluorescein [FAM]-RGVVNASSRLAK as peptide substrate incubated for 3 hrs by fluorescence based analysis; design: species or system Human betaherpesvirus 5
[20] = Inhibition of N-terminal 6 His-tagged HHV6 protease W7A mutant (2 to 230 residues) expressed in Escherichia coli BL21 cells using 5FAM-KPSILNASLTPETVKK as peptide substrate incubated for 3 hrs by fluorescence based analysis; design: species or system Human betaherpesvirus 6
[21] = Inhibition of amino terminal GST tagged HCMV protease Y6A mutant (1 to 256 residues) expressed in Escherichia coli BL21 (DE3) cells using 5-carboxyfluorescein [FAM]-RGVVNASSRLAK as peptide substrate incubated for 3 hrs by fluorescence based analysis; design: species or system Human betaherpesvirus 5
[22] = Inhibition of N-terminal 6 His-tagged HHV6 protease Y6A mutant (2 to 230 residues) expressed in Escherichia coli BL21 cells using 5FAM-KPSILNASLTPETVKK as peptide substrate incubated for 3 hrs by fluorescence based analysis; design: species or system Human betaherpesvirus 6

IC50 [1]: > 99 µM
IC50 [3]: > 99 µM
SMILES: CC[C@H](C)[C@H](NC(C)=O)C(=O)N[C@H](C(=O)NCC(=O)N[C@@H](Cc1c[nH]cn1)C(=O)N[C@@H](Cc1ccc(O)cc1)C(=O)N[C@@H](Cc1c[nH]c2ccccc12)C(N)=O)[C@@H](C)O (Ac-ITGHYW-NH2)
inhibition [2]: 21%
inhibition [4]: 2%

SMILES: CC[C@H](C)[C@H](NC(=O)[C@H](C)NC(C)=O)C(=O)N[C@H](C(=O)NCC(=O)N[C@@H](Cc1c[nH]cn1)C(=O)N[C@@H](Cc1ccc(O)cc1)C(=O)N[C@@H](Cc1c[nH]c2ccccc12)C(=O)N[C@H](C(=O)N[C@@H](CCCNC(=N)N)C(=O)N[C@@H](Cc1ccccc1)C(=O)N[C@@H](CC(C)C)C(=O)N1CCC[C@H]1C(=O)N[C@@H](CS)C(=O)NCC(N)=O)C(C)C)[C@@H](C)O (Ac-AITGHYWVRFLPCG-NH2)
IC50 [5]: 0.14 µM
IC50 [6]: 0.079 µM

IC50 [1]: < 0.076 µM
IC50 [3]: < 0.076 µM
SMILES: CC[C@H](C)[C@H](NC(=O)[C@H](Cc1ccccc1)NC(C)=O)C(=O)N[C@H](C(=O)NCC(=O)N[C@@H](Cc1c[nH]cn1)C(=O)N[C@@H](Cc1ccc(O)cc1)C(=O)N[C@@H](Cc1c[nH]c2ccccc12)C(=O)N[C@H](C(=O)N[C@@H](CCCNC(=N)N)C(=O)N[C@@H](Cc1ccccc1)C(=O)N[C@@H](CC(C)C)C(=O)N1CCC[C@H]1C(=O)N[C@@H](CS)C(=O)NCC(N)=O)C(C)C)[C@@H](C)O (Ac-FITGHYWVRFLPCG-NH2)

IC50 [1]: 24 µM
IC50 [3]: 30 µM
SMILES: Cc1ccccc1C(c1cn(C2CCCC2)nc1-c1ccccc1)n1cccc(N2C[C@H](C(=O)NC34CCC(CC3)NC4=O)N(C)C2=O)c1=O (mixture of isomers)

SMILES: CC[C@H](C)[C@H](NC(=O)[C@H](Cc1ccccc1)NC(C)=O)C(=O)N[C@H](C(=O)NCC(=O)N[C@@H](Cc1c[nH]cn1)C(=O)N[C@@H](Cc1ccc(O)cc1)C(=O)N[C@@H](Cc1c[nH]c2ccccc12)C(=O)N[C@H](C(=O)N[C@@H](C)C(=O)N[C@@H](Cc1ccccc1)C(=O)N[C@@H](CC(C)C)C(=O)N1CCC[C@H]1C(=O)N[C@@H](CS)C(=O)NCC(N)=O)C(C)C)[C@@H](C)O (Ac-FITGHYWVAFLPCG-NH2)
IC50 [7]: < 0.076 µM
IC50 [8]: 0.092 µM

IC50 [1]: > 99 µM
EC50 [10]: 90 µM
IC50 [3]: > 99 µM
SMILES: CN1C(=O)N(c2cccn([C@H](c3ccccc3)c3cn(C4CCCC4)nc3-c3ccccc3)c2=O)C[C@@H]1C(=O)Nc1ccc[nH]c1=O
CC50 at 120 h [9]: 89 µM
inhibition [2]: 12%
inhibition [4]: 2%

IC50 [1]: 11 µM
EC50 [10]: > 25 µM
IC50 [3]: 9.8 µM
SMILES: CN1C(=O)N(c2cccn([C@@H](c3ccccc3)c3cn(C4CCCC4)nc3-c3ccccc3)c2=O)C[C@@H]1C(=O)NC12CCC(CC1)NC2=O
CC50 at 120 h [9]: > 25 µM

IC50 [1]: 18 µM
EC50 [10]: 38 µM
IC50 [3]: > 99 µM
SMILES: CN1C(=O)N(c2cccn([C@@H](c3ccccc3)c3cn(C4CCCC4)nc3-c3ccccc3)c2=O)C[C@@H]1C(=O)Nc1ccc[nH]c1=O
CC50 at 120 h [9]: 53 µM
inhibition [4]: 32%

IC50 [1]: 50 µM
IC50 [3]: > 99 µM
SMILES: Cc1ccc([C@H](c2cn(C3CCCC3)nc2-c2ccccc2C)n2cccc(N3C[C@H](C(=O)NC45CCC(CC4)NC5=O)N(C)C3=O)c2=O)cc1
inhibition [4]: 39%

SMILES: CC[C@H](C)[C@H](NC(=O)[C@H](Cc1ccccc1)NC(C)=O)C(=O)N[C@H](C(=O)NCC(=O)N[C@@H](C)C(=O)N[C@@H](Cc1ccc(O)cc1)C(=O)N[C@@H](Cc1c[nH]c2ccccc12)C(=O)N[C@H](C(=O)N[C@@H](CCCNC(=N)N)C(=O)N[C@@H](Cc1ccccc1)C(=O)N[C@@H](CC(C)C)C(=O)N1CCC[C@H]1C(=O)N[C@@H](CS)C(=O)NCC(N)=O)C(C)C)[C@@H](C)O (Ac-FITGAYWVRFLPCG-NH2)
IC50 [11]: 0.109 µM
IC50 [12]: 0.086 µM

SMILES: CC(=O)N[C@@H](Cc1ccccc1)C(=O)N[C@@H](C)C(=O)N[C@H](C(=O)NCC(=O)N[C@@H](Cc1c[nH]cn1)C(=O)N[C@@H](Cc1ccc(O)cc1)C(=O)N[C@@H](Cc1c[nH]c2ccccc12)C(=O)N[C@H](C(=O)N[C@@H](CCCNC(=N)N)C(=O)N[C@@H](Cc1ccccc1)C(=O)N[C@@H](CC(C)C)C(=O)N1CCC[C@H]1C(=O)N[C@@H](CS)C(=O)NCC(N)=O)C(C)C)[C@@H](C)O (Ac-FATGHYWVRFLPCG-NH2)
IC50 [13]: 0.184 µM
IC50 [14]: < 0.076 µM

IC50 [1]: 5 µM
IC50 [3]: 13 µM
SMILES: Cc1ccc(C(c2cn(C3CCCC3)nc2-c2ccccc2)n2cccc(N3C[C@H](C(=O)NC45CCC(CC4)NC5=O)N(C)C3=O)c2=O)cc1 (mixture of isomers)

SMILES: CC[C@H](C)[C@H](NC(=O)[C@H](Cc1ccccc1)NC(C)=O)C(=O)N[C@@H](C)C(=O)NCC(=O)N[C@@H](Cc1c[nH]cn1)C(=O)N[C@@H](Cc1ccc(O)cc1)C(=O)N[C@@H](Cc1c[nH]c2ccccc12)C(=O)N[C@H](C(=O)N[C@@H](CCCNC(=N)N)C(=O)N[C@@H](Cc1ccccc1)C(=O)N[C@@H](CC(C)C)C(=O)N1CCC[C@H]1C(=O)N[C@@H](CS)C(=O)NCC(N)=O)C(C)C (Ac-FIAGHYWVRFLPCG-NH2)
IC50 [15]: 0.1 µM
IC50 [16]: 0.157 µM

SMILES: CC[C@H](C)[C@H](NC(=O)[C@H](Cc1ccccc1)NC(C)=O)C(=O)N[C@H](C(=O)NCC(=O)N[C@@H](Cc1c[nH]cn1)C(=O)N[C@@H](Cc1ccc(O)cc1)C(=O)N[C@@H](Cc1c[nH]c2ccccc12)C(=O)N[C@@H](C)C(=O)N[C@@H](CCCNC(=N)N)C(=O)N[C@@H](Cc1ccccc1)C(=O)N[C@@H](CC(C)C)C(=O)N1CCC[C@H]1C(=O)N[C@@H](CS)C(=O)NCC(N)=O)[C@@H](C)O (Ac-FITGHYWARFLPCG-NH2)
IC50 [17]: < 0.076 µM
IC50 [18]: 0.096 µM

SMILES: CC[C@H](C)[C@H](NC(=O)[C@H](Cc1ccccc1)NC(C)=O)C(=O)N[C@H](C(=O)NCC(=O)N[C@@H](Cc1c[nH]cn1)C(=O)N[C@@H](Cc1ccc(O)cc1)C(=O)N[C@@H](C)C(=O)N[C@H](C(=O)N[C@@H](CCCNC(=N)N)C(=O)N[C@@H](Cc1ccccc1)C(=O)N[C@@H](CC(C)C)C(=O)N1CCC[C@H]1C(=O)N[C@@H](CS)C(=O)NCC(N)=O)C(C)C)[C@@H](C)O (Ac-FITGHYAVRFLPCG-NH2)
IC50 [19]: 0.811 µM
IC50 [20]: 0.25 µM

IC50 [1]: 27 µM
IC50 [3]: 15 µM
SMILES: Cc1cccc(C(c2cn(C3CCCC3)nc2-c2ccccc2)n2cccc(N3C[C@H](C(=O)NC45CCC(CC4)NC5=O)N(C)C3=O)c2=O)c1 (mixture of isomers)

SMILES: CC[C@H](C)[C@H](NC(=O)[C@H](Cc1ccccc1)NC(C)=O)C(=O)N[C@H](C(=O)NCC(=O)N[C@@H](Cc1c[nH]cn1)C(=O)N[C@@H](C)C(=O)N[C@@H](Cc1c[nH]c2ccccc12)C(=O)N[C@H](C(=O)N[C@@H](CCCNC(=N)N)C(=O)N[C@@H](Cc1ccccc1)C(=O)N[C@@H](CC(C)C)C(=O)N1CCC[C@H]1C(=O)N[C@@H](CS)C(=O)NCC(N)=O)C(C)C)[C@@H](C)O (Ac-FITGHAWVRFLPCG-NH2)
IC50 [21]: 0.689 µM
IC50 [22]: 0.085 µM
